Earlier results as cited in patent US20070293937A1, “Endoluminal medical device for local delivery of cathepsin inhibitors, method of making and treating” (MED Institute, Inc., priority 2006, published 2007).
Where a SMILES comes first, the peptide text is derived from it. The star is where a group is joined. CHN2 = [N-]=[N+]=C*

Legend:
cathepsin C [1] = target: cathepsin C (Homo sapiens, UniProt P53634); details: natural inhibitors
cathepsin C [2] = details: Tompson et al.
purified cathepsin C = details: as found by Kam et al.
cathepsin C [3] = details: Green and Shaw, J. Biol. Chem. 1981

cathepsin C (Homo sapiens, UniProt P53634), sequence (P53634 25-463, species assumed): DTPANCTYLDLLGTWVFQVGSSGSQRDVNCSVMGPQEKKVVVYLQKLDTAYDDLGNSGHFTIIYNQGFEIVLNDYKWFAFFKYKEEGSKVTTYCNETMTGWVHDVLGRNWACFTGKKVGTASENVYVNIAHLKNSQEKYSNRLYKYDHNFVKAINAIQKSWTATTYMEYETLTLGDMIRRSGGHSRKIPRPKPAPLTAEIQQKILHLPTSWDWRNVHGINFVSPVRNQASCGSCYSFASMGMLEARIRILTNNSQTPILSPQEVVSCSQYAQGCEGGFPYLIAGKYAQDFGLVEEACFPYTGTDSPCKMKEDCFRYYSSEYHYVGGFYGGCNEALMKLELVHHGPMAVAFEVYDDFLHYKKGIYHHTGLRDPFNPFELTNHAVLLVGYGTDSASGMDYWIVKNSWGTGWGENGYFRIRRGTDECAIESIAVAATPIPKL

Question: For `CC(C)C[C@H](NC(=O)[C@H]1O[C@@H]1C(=O)O)C(=O)NCCCCN=C(N)N` [Compound E-64, E-64], which “inhibition of cathepsin C (in words)” value (cathepsin C [1]) is on record?
Answer: The value was “inhibit cathepsin C at high inhibitor concentrations”.

Question: With `N#CC(Cc1ccccc1)NC(=O)CN` (stereo not shown) [Gly-NHCH(CH2Ph)CN] as the compound, how does the Ki (cathepsin C [2]; reversible nitrile inhibitor, J. Med. Chem. 1986, read-out: Kl value) read?
Answer: Its Ki is 2.7 µM.

Question: With `[N-]=[N+]=CC(=O)[C@H](Cc1ccccc1)NC(=O)CN` [Gly-Phe-CHN2] (H-Gly-Phe-CHN2) as the compound, how does the “inhibition of cathepsin C (in words)” value (purified cathepsin C) read?
Answer: Its value is “potent inhibitor”.

Question: And the “kobs/[l]” value (cathepsin C [3])?
Answer: The value was 10^4 M^−1 s^−1.

Question: With `CS(=O)(=O)C=CC(Cc1ccccc1)NC(=O)CN` (stereo not drawn) [Gly-Phe-VS—CH3] as the compound, how does the k2/Kl (cathepsin C [2]; J. Med. Chem. 1986) read?
Answer: Its k2/Kl is 56 M⁻¹ s⁻¹.

Question: With `CC(=O)N[C@@H](CC(C)C)C(=O)N[C@@H](CC(C)C)C(=O)N[C@H](C=O)CCCNC(=N)N` [leupeptin] as the compound, how does the “inhibition of cathepsin C (in words)” value (cathepsin C [1]) read?
Answer: Its value is “inhibit cathepsin C at high inhibitor concentrations”.

Question: With cystatin as the compound, how does the “inhibition of cathepsin C (in words)” value (cathepsin C [1]) read?
Answer: Its value is “inhibit cathepsin C at high inhibitor concentrations”.
